# According to patent publication US12472196B2, “Use of DNMT inhibitor” (priority 2019, dated 2025):
# Like-named read-outs stand apart in the source and are kept apart here.
# Tests used:
# cytidine deaminase = cytidine deaminase (Homo sapiens, UniProt P32320); assay: Stability against cytidine deaminase (HPLC)
# Method: About 1 mg of a silyl etherified derivative of 5-aza-2′-deoxycytidine in carbohydrate moiety (see formula (I)) was dissolved in 1 mL of acetonitrile. 10 μL of the solution was added to 1 mL of PBS. 10 μl of a PBS solution of cytidine deaminase was added to the obtained solution and stirred at 37° C. for about 1 hour. 1 mL of acetonitrile was added to the reaction solution and centrifuged. The supernatant was analyzed with HPLC.
# Cytidine deaminase: CDA (1-146aa), Human, His-tagged, Recombinant cytidine deaminase (ATGen) • HPLC conditions: • Column: CAPCELL PAK ADME (4.6 mm×150 mm, particle size: 3 μm) • Elution: eluate A=Purified water containing 10 mM ammonium formate • Eluate B=Acetonitrile • Gradient mode: A:B=99:1→5:95/30 minutes • Flow rate: 1.0 mL/min • Oven temperature: 40° C. • Detection: UV240 nm
# MYL-R = assay: cells
# Method: (§1) The CML cell line (BV173, MYL, Ba/F3 BCR-ABL^WT) and the TKI-resistant CML cell line (MYL-R, Ba/F3 BCR-ABL^T315I) in the Table below were seeded in 96-well plates at 3,000-7,000 cells/100 μL/well in a culture solution (10% FBS and RPMI-1640) and cultured under 5% CO2 gas flow at 37° C. for about 3 hours. Then, 100 μL of each compound diluted with the culture solution to 50-0.05 μM MYL, Ba/F3 BCR-ABL^WT, MYL-R, Ba/F3 BCR-ABL^T315I and 500 nM-0.1 nM BV173 was added to the above 96-well plates and cultured for 24 hours, followed by centrifugation (4° C., 1500 rpm, 5 minutes). The supernatant of the culture solution was discarded. 100 μL each of the compounds diluted with the culture solution was added again and cultured further for 24 hours (48 hours totally). The same procedure was repeated. After further culturing for 24 hours (72 hours totally) and reaction using CCK-8 reagent (DOJINDO, CK04) according to its attached instruction, the absorption at 450 nm and 620 nm (blank) of each well was determined with a plate reader (Varioskan Flash, Thermo-Fisher Scientific Co. Ltd.). The values of the wells without sample treatment were taken as 100%, and those of the wells treated with the samples were expressed as relative values. The values of IC50 (μm) were calculated (see Table 3-1). In addition, IC50 ratio of MYL-R cell line to MYL cell line and that of Ba/F3 BCR-ABL^T315I cell line to Ba/F3 BCR-ABL^WT cell line were calculated (see Table 3-2).
# (§2) MYL-R cell line is an MYL cell line in which Lyn is overexpressed, and Ba/F3 BCR-ABL^T315I cell line is the one in which ABLT315I mutation is introduced into Ba/F3 BCR-ABL^WT cell line. They both have acquired resistance to TKI.
# Ba/F3 BCR-ABL^T315I = assay: cells
# Method: as §1, §2
# MYL = assay: cells; settings: 72 h, read-out: IC50 MYL
# Method: as §1
# Ba/F3 BCR-ABL^WT = assay: cells; settings: Mus musculus, BaF3, 72 h, read-out: IC50 Ba/F3 BCR-ABL^WT
# Method: as §1
# BV173 = assay: cells
# Method: as §1
# [1] = system: CpG island of LINE-1 in BV173 cell line; assay: DNA demethylation effect: CpG methylation ratio of LINE-1 by pyrosequencing; type: cell-based; settings: BV173, 72 hours
# Method: The methylation ratio of cytosine moiety of CpG island of LINE-1 (long interspersed nucleotide factor −1) was determined by using a method of pyrosequencing.
# Solutions of silyl etherified derivatives of 5-aza-2′-deoxycytidine in carbohydrate moiety (for example, Compound F: 5′-O-(triethylsilyl)-5-aza-2′-deoxycytidine) at concentrations of 0.1 nM, 1.0 nM, 5.0 nM, 10.0 nM, and 50.0 nM were added, respectively to a solution containing BV173 cell line (about 50,000 cells/mL), and cultured in a RPMI-1640 medium (containing 10% FBS and Penn-strep) for 72 hours. Then, DNA was extracted from the cells and treated with hydrogensulfite. CpG methylation ratio of LINE-1 was determined (see Table 4).
# [2] = Non-enzymatic hydrolysis in PBS solution at 37° C. (HPLC); type: physicochemical
# Method: A silyl etherified derivative of 5-aza-2′-deoxycytidine in carbohydrate moiety (see formula (I)), for example, 5′-O-(triethylsilyl)-5-aza-2′-deoxycytidine (Compound F) (about 1 mg) was dissolved in 1 mL of acetonitrile. 5 μL of the solution was added to 100 μL of a PBS solution (10 mM), and stirred at 37° C. The reactant was analyzed over the time with HPLC.
# HPLC conditions were same as those in test example 1.
# cytidine deaminase, sequence (P32320 whole entry): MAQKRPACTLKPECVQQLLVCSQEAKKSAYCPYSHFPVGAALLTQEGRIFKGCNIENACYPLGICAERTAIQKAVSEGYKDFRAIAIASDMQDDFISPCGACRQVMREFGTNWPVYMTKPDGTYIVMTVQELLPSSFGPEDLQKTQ
smiles,measurement,setting,value
Nc1ncn([C@H]2C[C@H](O)[C@@H](CO)O2)c(=O)n1 [5-Aza-2′-deoxycytidine],Change in HPLC pattern,cytidine deaminase,The peak for starting material disappeared
same,stability to cytidine deaminase (in words),cytidine deaminase,disappeared completely
same,time within which decomposed in the presence of cytidine deaminase,cytidine deaminase; under the condition used,≤ 30 min
"CC[Si](CC)(CC)OC[C@H]1O[C@@H](n2cnc(N)nc2=O)C[C@@H]1O [Compound F, 5′-O-(Triethylsilyl)-5-aza-2′-deoxycytidine]",IC50,"MYL-R; 72 h, read-out: IC50 MYL-R",790 nM
same,anti-CML activity against MYL-R strain compared with reference nucleosides (in words),MYL-R; MYL-R,considerably higher than that in the case of 5-aza cytidine
same,anti-TKI-resistant CML activity (in words),"MYL-R; TKI-resistant CML cell lines of Table 3-1 (MYL-R, Ba/F3 BCR-ABL^T315I)",anti-TKI-resistant CML activity
same,IC50 ratio MYL-R/MYL,MYL-R; ratio of IC50 in MYL-R to MYL,2.8
same,IC50,"Ba/F3 BCR-ABL^T315I; Mus musculus, BaF3, 72 h, read-out: IC50 Ba/F3 BCR-ABL^T315I",780 nM
same,IC50 ratio Ba/F3 BCR-ABL^T315I/BCR-ABL^WT,Ba/F3 BCR-ABL^T315I; ratio of IC50 in Ba/F3 BCR-ABL^T315I to Ba/F3 BCR-ABL^WT,1.4
same,IC50,MYL,280 nM
same,IC50,Ba/F3 BCR-ABL^WT,580 nM
same,anti-CML activity (in words),"BV173; CML cell lines of Table 3-1 (BV173, MYL, Ba/F3 BCR-ABL^WT)",very high anti-CML activity
same,IC50,"BV173; Homo sapiens, BV-173, 72 h, read-out: IC50 BV173",5 nM
same,Methylation ratio,[1]; 0.1 nM,89.3%
same,Methylation ratio,[1]; 1.0 nM,89.7%
same,Methylation ratio,[1]; 5.0 nM,88.0%
same,Methylation ratio,[1]; 10.0 nM,82.3%
same,Methylation ratio,[1]; 50.0 nM,60.0%
same,5-Aza-2′-deoxycytidine (%) After 4 hours,"[2]; 10 mM PBS, 4 hours, desilyl form produced",10%
same,5-Aza-2′-deoxycytidine (%) After 8 hours,"[2]; 10 mM PBS, 8 hours, desilyl form produced",12%
same,5-Aza-2′-deoxycytidine (%) After 24 hours,"[2]; 10 mM PBS, 24 hours, desilyl form produced",48%
same,non-enzymatic hydrolysis in PBS solution (in words),[2]; PBS,the corresponding desilyl form (5-aza-2′-deoxycytizine: R^1 and R^2 are hydrogen atoms in formula (I)) was produced almost without other decomposition products
same,Change in HPLC pattern,"cytidine deaminase; PBS with recombinant human cytidine deaminase, 37° C., about 1 hour",Almost no change in the peak for
